Data as given in patent publication US11427548B2 (Arvinas Operations, Inc., priority 2015, dated 2022).
Like-named read-outs stand apart in the source and are kept apart here.

Key:
Androgen Receptor [1] = target: T1, Androgen Receptor (Homo sapiens, UniProt P10275+P40337, T878A); test: Androgen Receptor ELISA assay (PathScan AR ELISA) in LNCaP cells: AR degradation, Dmax and DC50; type: cell-based; details: for DC50: concentration that caused 50% Androgen Receptor degradation
T1 construct: Compounds have been evaluated in this assay in LNCaP and/or VCaP cells utilizing similar protocols; endogenous in cells; host or cells: LNCaP cells
T1 sequence (P10275 whole entry T878A): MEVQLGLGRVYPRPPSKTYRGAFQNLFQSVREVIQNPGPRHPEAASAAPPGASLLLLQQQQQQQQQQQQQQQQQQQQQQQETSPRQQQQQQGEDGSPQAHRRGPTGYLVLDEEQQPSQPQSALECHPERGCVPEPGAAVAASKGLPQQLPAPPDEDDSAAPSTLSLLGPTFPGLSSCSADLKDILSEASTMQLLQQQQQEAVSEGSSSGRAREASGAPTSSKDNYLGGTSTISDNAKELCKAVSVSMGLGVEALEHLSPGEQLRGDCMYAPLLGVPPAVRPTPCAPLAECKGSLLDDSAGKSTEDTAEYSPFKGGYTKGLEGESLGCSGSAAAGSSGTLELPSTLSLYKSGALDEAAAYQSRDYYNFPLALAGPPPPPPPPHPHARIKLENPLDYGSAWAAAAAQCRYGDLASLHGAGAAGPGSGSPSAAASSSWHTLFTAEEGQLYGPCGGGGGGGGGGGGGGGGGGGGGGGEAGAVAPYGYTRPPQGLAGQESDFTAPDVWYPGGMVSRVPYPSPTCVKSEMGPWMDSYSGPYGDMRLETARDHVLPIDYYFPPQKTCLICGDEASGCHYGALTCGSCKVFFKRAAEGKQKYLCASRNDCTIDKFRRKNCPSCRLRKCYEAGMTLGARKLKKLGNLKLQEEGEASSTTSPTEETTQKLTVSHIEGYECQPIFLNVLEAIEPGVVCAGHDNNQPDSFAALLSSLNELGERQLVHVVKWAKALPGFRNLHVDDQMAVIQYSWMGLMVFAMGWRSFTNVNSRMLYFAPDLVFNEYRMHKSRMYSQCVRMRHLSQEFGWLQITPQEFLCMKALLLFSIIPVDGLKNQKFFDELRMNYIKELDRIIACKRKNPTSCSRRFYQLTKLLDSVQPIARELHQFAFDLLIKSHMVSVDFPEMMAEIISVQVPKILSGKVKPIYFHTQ
T1 sequence (P40337 whole entry): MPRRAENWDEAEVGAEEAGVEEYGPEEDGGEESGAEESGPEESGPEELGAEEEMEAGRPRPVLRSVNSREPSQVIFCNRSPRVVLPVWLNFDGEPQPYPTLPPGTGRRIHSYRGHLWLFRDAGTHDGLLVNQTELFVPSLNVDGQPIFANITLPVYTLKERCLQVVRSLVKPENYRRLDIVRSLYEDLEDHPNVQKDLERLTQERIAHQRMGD
T1 sequence (Q15369 whole entry partner): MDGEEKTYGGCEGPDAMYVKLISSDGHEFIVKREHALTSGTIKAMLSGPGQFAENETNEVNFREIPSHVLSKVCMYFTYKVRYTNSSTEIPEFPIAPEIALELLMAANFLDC
T1 sequence (Q15370 whole entry partner): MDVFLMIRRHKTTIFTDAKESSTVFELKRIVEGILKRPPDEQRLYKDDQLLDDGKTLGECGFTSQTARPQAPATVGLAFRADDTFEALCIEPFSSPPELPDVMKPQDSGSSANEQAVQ

Androgen Receptor [2] = target: T2, Androgen Receptor (Homo sapiens, UniProt P10275); test: Androgen Receptor ELISA assay (PathScan AR ELISA) in VCaP cells: AR degradation, Dmax and DC50; type: cell-based
T2 construct: endogenous in cells; host or cells: VCaP cells
T2 sequence (P10275 1-920): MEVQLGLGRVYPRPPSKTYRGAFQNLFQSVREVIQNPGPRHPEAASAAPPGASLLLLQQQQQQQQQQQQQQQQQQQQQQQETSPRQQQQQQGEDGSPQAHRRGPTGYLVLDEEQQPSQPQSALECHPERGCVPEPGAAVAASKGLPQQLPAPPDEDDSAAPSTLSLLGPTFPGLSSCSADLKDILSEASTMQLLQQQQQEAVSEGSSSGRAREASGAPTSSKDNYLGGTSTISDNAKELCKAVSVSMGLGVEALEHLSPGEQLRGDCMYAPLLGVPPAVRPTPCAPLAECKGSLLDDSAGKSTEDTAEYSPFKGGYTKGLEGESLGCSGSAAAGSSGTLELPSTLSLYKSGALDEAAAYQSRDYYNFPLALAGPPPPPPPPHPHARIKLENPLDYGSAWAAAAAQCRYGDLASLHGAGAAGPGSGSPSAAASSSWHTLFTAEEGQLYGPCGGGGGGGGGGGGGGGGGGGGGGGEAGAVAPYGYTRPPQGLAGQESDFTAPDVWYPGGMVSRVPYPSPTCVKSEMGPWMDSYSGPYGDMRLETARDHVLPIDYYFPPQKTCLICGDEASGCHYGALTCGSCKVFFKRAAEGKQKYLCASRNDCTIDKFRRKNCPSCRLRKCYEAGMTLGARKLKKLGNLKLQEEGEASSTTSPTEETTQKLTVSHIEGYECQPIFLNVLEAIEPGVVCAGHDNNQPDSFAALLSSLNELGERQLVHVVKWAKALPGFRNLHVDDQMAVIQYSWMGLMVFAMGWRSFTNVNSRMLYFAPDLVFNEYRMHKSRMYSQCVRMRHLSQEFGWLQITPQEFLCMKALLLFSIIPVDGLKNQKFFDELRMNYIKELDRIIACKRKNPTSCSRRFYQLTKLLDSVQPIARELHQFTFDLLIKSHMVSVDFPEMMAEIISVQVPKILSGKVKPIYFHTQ
Outline: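 After 24 h exposure of VCaP cells (charcoal-stripped serum, 0.1 nM R1881 agonist, 0.1% DMSO) to seven half-log compound concentrations, residual AR in lysates was measured by PathScan ELISA (TMB absorbance, 450 nm). Cells were plated at 30,000/well and grown at least 3 days beforehand.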

[3] = highest percentage of Androgen Receptor degradation observed
[4] = highest percentage of Androgen Receptor degradation
[5] = read-out: VCaP DC50; VCaP cells; concentration that caused 50% Androgen Receptor degradation

SMILES | DC50 (Androgen Receptor [1]) [µM] | LNCaP Dmax (%) (Androgen Receptor [1]; [3]) | DC50 (Androgen Receptor [2]; concentration that caused 50% Androgen Receptor degradation, VCaP cells; read-out: VCaP DC50) [µM] | VCaP Dmax (%) (Androgen Receptor [2]; highest percentage of Androgen Receptor degradation observed, VCaP cells) | Dmax (Androgen Receptor [1]; [3]) [%] | Dmax (Androgen Receptor [2]; VCaP, read-out: VCaP Dmax (%)) [%] | DC50 (Androgen Receptor [2]; read-out: VCaP DC50; concentration that caused 50% Androgen Receptor degradation, VCaP cells) [µM] | Dmax (Androgen Receptor [1]; [4]) [%] | DC50 (Androgen Receptor [2]; [5]) [µM]
Cc1ncsc1-c1ccc([C@H](C)NC(=O)[C@@H]2C[C@@H](O)CN2C(=O)[C@@H](NC(=O)COCCOCCOc2ccc(-c3ccc(N4C(=S)N(c5ccc(C#N)c(C(F)(F)F)c5)C(=O)C4(C)C)cc3F)cc2)C(C)(C)C)cc1 [Example 79, (2S,4R)-l-[(2S)-2-[2-(2-{2-[4-(4-{3-[4-cyano-3-(trifluoromethyl)phenyl]-5,5-dimethyl-4-oxo-2-sulfanylideneimidazolidin-1-yl}-2-fluorophenyl)phenoxy]ethoxy}ethoxy)acelamido]-3,3-dimethylbutanoyl]-4-hydroxy-N-[(1S)-l-[4-(4-methyl-l,3-thiazol-5-yl)phenyl]ethyl]pyrrolidine-2-carboxamide] | < 0.05 | ++++ (71% ≤ Dmax) | < 0.05 | +++ (51% ≤ Dmax ≤ 70%) |  |  |  |  | 
Cc1ncsc1-c1ccc(CNC(=O)[C@@H]2C[C@@H](O)CN2C(=O)[C@@H](NC(=O)COCCCCOCCN2CCC(c3ccc(N4C(=S)N(c5ccc(C#N)c(C(F)(F)F)c5)C(=O)C4(C)C)cc3)CC2)C(C)(C)C)cc1 [Example 81, (2S,4R)-1-((S)-2-(2-(4-(2-(4-(4-(3-(4-cyano-3-(trifluoromethyl)phenyl)-5,5-dimethyl-4-oxo-2-thioxoimidazolidin-1-yl)phenyl)piperidin-1-yl)ethoxy)butoxy)acetamido)-3,3-dimethylbutanoyl)-4-hydroxy-N-(4-(4-methylthiazol-5-yl)benzyl)pyrrolidine-2-carboxamide] | > 0.501 |  |  |  | 51 to 70 | < 25 | 0.051 to 0.5 |  | 
Cc1ncsc1-c1ccc(CNC(=O)[C@@H]2C[C@@H](O)CN2C(=O)[C@@H](NC(=O)COCCCOCCCOc2ccc(N3C(=S)N(c4ccc(C#N)c(C(F)(F)F)c4)C(=O)C3(C)C)cc2)C(C)(C)C)cc1 [Example 238] | 0.051 to 0.5 |  |  |  |  | < 25 |  | 51 to 70 | 
Cc1ncsc1-c1ccc(CNC(=O)[C@@H]2C[C@H](O)CN2C(=O)[C@@H](NC(=O)COCCCOCCCCCOc2ccc(N3C(=S)N(c4ccc(C#N)c(C(F)(F)F)c4)C(=O)C3(C)C)cc2)C(C)(C)C)cc1 [Example 242] | > 0.501 |  |  |  |  | 26 to 50 |  | 26 to 50 | > 0.501
Cc1ncsc1-c1ccc(CNC(=O)[C@@H]2C[C@@H](O)CN2C(=O)[C@@H](NC(=O)COCCOCCCCCOc2ccc(N3C(=S)N(c4ccc(C#N)c(C(F)(F)F)c4)C(=O)C3(C)C)cc2)C(C)(C)C)cc1 [Example 247] | < 0.05 |  |  |  |  | > 71 |  | > 71 | < 0.05
Cc1ncsc1-c1ccc(CNC(=O)[C@@H]2C[C@@H](O)CN2C(=O)[C@@H](NC(=O)CCCOCCOc2ccc(-c3ccc(N4C(=S)N(c5ccc(C#N)c(C(F)(F)F)c5)C(=O)C4(C)C)cc3)cc2)C(C)(C)C)cc1 [Example 260] | 0.051 to 0.5 |  |  |  |  | 26 to 50 |  | > 71 | < 0.05
Cc1ncsc1-c1ccc(CNC(=O)[C@@H]2C[C@@H](O)CN2C(=O)[C@@H](NC(=O)c2cccc(OCCCCOc3ccc(N4C(=S)N(c5ccc(C#N)c(C(F)(F)F)c5)C(=O)C4(C)C)cc3)c2)C(C)(C)C)cc1 [Example 278] | 0.051 to 0.5 |  |  |  |  | 51 to 70 |  | > 71 | < 0.05
Cc1ncsc1-c1ccc(CNC(=O)[C@@H]2C[C@@H](O)CN2C(=O)[C@@H](NC(=O)COCCCOCCOc2cccc(-c3ccc(N4C(=S)N(c5ccc(C#N)c(C(F)(F)F)c5)C(=O)C4(C)C)cc3)c2)C(C)(C)C)cc1 [Example 288] | < 0.05 |  |  |  |  | 26 to 50 |  | > 71 | < 0.05
Cc1ncsc1-c1ccc(CNC(=O)[C@@H]2C[C@@H](O)CN2C(=O)[C@@H](NC(=O)CCc2ccc(OCCCOc3ccc(N4C(=S)N(c5ccc(C#N)c(C(F)(F)F)c5)C(=O)C4(C)C)cc3)cc2)C(C)(C)C)cc1 [Example 292] | 0.051 to 0.5 |  |  |  |  | 26 to 50 |  | 51 to 70 | 0.051 to 0.5
Cc1ncsc1-c1ccc(CNC(=O)[C@@H]2C[C@@H](O)CN2C(=O)[C@@H](NC(=O)COCCCCOC2CCN(C(=O)c3ccc(N4C(=S)N(c5ccc(C#N)c(C(F)(F)F)c5)C(=O)C4(C)C)cc3)CC2)C(C)(C)C)cc1 [Example 293] | 0.051 to 0.5 |  |  |  |  | < 25 |  | 51 to 70 | 
Cc1ncsc1-c1ccc(CNC(=O)[C@@H]2C[C@@H](O)CN2C(=O)[C@@H](NC(=O)COCCCCCOC2CCN(C(=O)c3ccc(N4C(=S)N(c5ccc(C#N)c(C(F)(F)F)c5)C(=O)C4(C)C)cc3)CC2)C(C)(C)C)cc1 [Example 294] | 0.051 to 0.5 |  |  |  |  | 26 to 50 |  | 26 to 50 | 0.051 to 0.5
Cc1ncsc1-c1ccc(CNC(=O)[C@@H]2C[C@@H](O)CN2C(=O)[C@@H](NC(=O)COCCCCCOCCCOc2ccc(N3C(=S)N(c4ccc(C#N)c(C(F)(F)F)c4)C(=O)C3(C)C)cc2)C(C)(C)C)cc1 [Example 295] | < 0.05 |  |  |  |  | 26 to 50 |  | > 71 | < 0.05
Cc1ncsc1-c1ccc(CNC(=O)[C@@H]2C[C@@H](O)CN2C(=O)[C@@H](NC(=O)COCCOc2cccc(CCCOc3ccc(N4C(=S)N(c5ccc(C#N)c(C(F)(F)F)c5)C(=O)C4(C)C)cc3)c2)C(C)(C)C)cc1 [Example 296] | 0.051 to 0.5 |  |  |  |  | 26 to 50 |  | > 71 | < 0.05
Cc1ncsc1-c1ccc(CNC(=O)[C@@H]2C[C@@H](O)CC2C(=O)[C@H](C(C)C)N2Cc3ccccc3C2=O)c(OCCOC2CCCC[C@@H]2OCCOc2ccc(N3C(=S)N(c4ccc(C#N)c(C(F)(F)F)c4)C(=O)C3(C)C)cc2)c1 (stereo partly shown) [Example 297] | > 0.501 |  |  |  |  | 26 to 50 |  | 26 to 50 | 
Cc1ncsc1-c1ccc(CNC(=O)[C@@H]2C[C@@H](O)CN2C(=O)[C@@H](NC(=O)Cc2cccc(OCCCOCCOc3ccc(N4C(=S)N(c5ccc(C#N)c(C(F)(F)F)c5)C(=O)C4(C)C)cc3)c2)C(C)(C)C)cc1 [Example 298] | 0.051 to 0.5 |  |  |  |  | 26 to 50 |  | 51 to 70 | 0.051 to 0.5
Cc1ncsc1-c1ccc(CNC(=O)[C@@H]2C[C@@H](O)CN2C(=O)[C@H](C(C)C)N2Cc3c(CCCOCCOc4ccc(N5C(=S)N(c6ccc(C#N)c(C(F)(F)F)c6)C(=O)C5(C)C)cc4)cccc3C2=O)cc1 [Example 299] | 0.051 to 0.5 |  |  |  |  | 26 to 50 |  | > 71 | 
Cc1ncsc1-c1ccc(CNC(=O)[C@@H]2C[C@@H](O)CN2C(=O)[C@@H](NC(=O)CCCOCCOCCCOc2ccc(N3C(=S)N(c4ccc(C#N)c(C(F)(F)F)c4)C(=O)C3(C)C)cc2)C(C)(C)C)cc1 [Example 300] | < 0.05 |  |  |  |  | 51 to 70 |  | 51 to 70 | < 0.05
Cc1ncsc1-c1ccc(CNC(=O)[C@@H]2C[C@@H](O)CN2C(=O)[C@@H](NC(=O)CCCOCCCOCCCOc2ccc(N3C(=S)N(c4ccc(C#N)c(C(F)(F)F)c4)C(=O)C3(C)C)cc2)C(C)(C)C)cc1 [Example 301] | < 0.05 |  |  |  |  | 51 to 70 |  | 51 to 70 | 
Cc1ncsc1-c1ccc(CNC(=O)[C@@H]2C[C@@H](O)CN2C(=O)[C@@H](NC(=O)CCCOc2ccc(CCOc3ccc(N4C(=S)N(c5ccc(C#N)c(C(F)(F)F)c5)C(=O)C4(C)C)cc3)cc2)C(C)(C)C)cc1 [Example 302] | 0.051 to 0.5 |  |  |  |  | 51 to 70 |  | > 71 | < 0.05
Cc1ncsc1-c1ccc(CNC(=O)[C@@H]2C[C@@H](O)CN2C(=O)[C@@H](NC(=O)CCc2ccc(OCCOc3ccc(N4C(=S)N(c5ccc(C#N)c(C(F)(F)F)c5)C(=O)C4(C)C)cc3)cc2)C(C)(C)C)cc1 [Example 303] | < 0.05 |  |  |  |  | 51 to 70 |  | > 71 | < 0.05
Cc1ncsc1-c1ccc(CNC(=O)[C@@H]2C[C@@H](O)CN2C(=O)[C@@H](NC(=O)CCOc2ccc(CCOc3ccc(N4C(=S)N(c5ccc(C#N)c(C(F)(F)F)c5)C(=O)C4(C)C)cc3)cc2)C(C)(C)C)cc1 [Example 306] | < 0.05 |  |  |  |  | 51 to 70 |  | > 71 | 
Cc1ncsc1-c1ccc(CNC(=O)[C@@H]2C[C@@H](O)CN2C(=O)[C@@H](NC(=O)COCCCOCCCOc2ccc(CN3C(=S)N(c4ccc(C#N)c(C(F)(F)F)c4)C(=O)C3(C)C)cc2)C(C)(C)C)cc1 [Example 307] | 0.051 to 0.5 |  |  |  |  | 51 to 70 |  | 51 to 70 | < 0.05
